In series [1] the test system is wild-type male cynomolgus monkeys. Nature of the series: Reduction of blood C26:0 LPC in vivo in cynomolgus monkeys. Also on record: species or system cynomolgus monkey. The note with it: 30 mg/kg PO QD, after 7 days of dosing. As to the method:
A LC-MS/MS method of analyzing Lysophosphatidylcholine (LPC) in whole blood (dried blood spot card, DBS) and brain tissue samples was developed for measuring the abundance of saturated C16, C18, C20, C22, C24 and C26 LPC in DBS and brain samples. Whole blood was collected with Whatman DMPK-C DBS card at an approximate volume of 20 μL at each time point. Brain tissue was collected at the end point of the study. Samples were prepared and LC-MS/MS analysis was performed as described below.
For DBS bioanalysis, the DBS card was punched at 3 mm in diameter using a semi-automated DBS card puncher. To each punched spot 200 μL of pure methanol was added. […]
The supernatant obtained from each sample was injected into a LC-MS/MS system (Agilent Technologies, Santa Clara, Calif. and Applied Biosystems, Framingham, Mass.) for analysis. […] LPCs were detected by an AB Sciex API-6500 triple quadrupole MS with electrospray ionization in the mode of multiple reaction monitoring. Ions of Q1 were monitored at m/z of 496.6, 524.6, 552.6, 580.6, 608.6 and 636.6 for LPC 16:0, LPC 18:0, LPC 20:0, LPC 22:0, LPC 24:0 and LPC 26:0, respectively. […] C16:0 LPC levels were expressed as a concentration. […]
The vehicle used was 2% TPGS and Compound 87 doses were prepared in 2% TPGS. […] DBS cards were stored at 4° C. until they could be analyzed for VLCFAs. DBS samples were prepared and analyzed using LC-MS/MS as described above.

Series [2] is described as follows: Body weight and adverse effects during treatment in the thermal sensitivity studies. To be noted: ABCD1 KO mice, prophylactic (5 or 20 mg/kg) and therapeutic (32 or 64 mg/kg) PO QD experiments. Format: in vivo, mouse. As to the method: For the prophylactic study, mice were tested beginning at 10 months of age (before the loss of pain sensitivity) using doses of either 5 or 20 mg/kg. For the therapeutic study, mice were tested beginning at 18 months of age, after there was already a significant loss of pain sensitivity, using doses of either 32 or 64 mg/kg. […] The Plantar test (using a Hargreaves apparatus) was used and measured the latency to respond to a thermal stimulus using the following protocol. An individual mouse was placed into an individual compartment with a glass floor for about 10-15 minutes until they were settled. Each individual mouse was given three trials with an infrared source on each hind paw (alternated hind paws each time, and waited 5 minutes between each trial). The infrared source was placed under the glass floor and was positioned by the operator directly beneath the hind paw. A trial was commenced by depressing a key/button which turned on the infrared source and started a digital timer. When a response was observed (paw withdrawal), the key/button was released and the latency to respond was recorded (in seconds).

Take `O=C(Nc1ccn(-c2ccnc(F)c2)n1)C1(c2ccccc2F)CC1` [Compound 87, 1-(2-fluorophenyl)-N-[1-(2-fluoro-4-pyridyl)pyrazol-3-yl]cyclopropanecarboxamide]: the “reduction in blood C26:0 LPC” value in series [1] is listed as about 50%. For the same molecule, the “body weight and adverse effects during treatment” value in series [2] is “did not have a significant drop in body weight or any other noticeable adverse effect”.

These data come from patent publication US20180251431A1 (VERTEX PHARMACEUTICALS INCORPORATED, priority 2016, published 2018).
